The structures appear in SMILES notation.

The test system of one test is P-Akt (S473). Put plainly: Cell based AlphaLISA assay, inhibition of P-Akt (S473) (mTORC2 substrate phosphorylation) in MDA-MB-468 cells. The note with it: Homo sapiens, MDA-MB-468, 4 h, AlphaLISA, two to four hours at 37° C., read-out: pIC50 for Inhibition of mTORC1 and mTORC2 Substrate Phosphorylation, p-AKT 1/2/3 -(S473) (converted). In short, it runs like this:
(§1)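 IC50s come from control-normalized curve fits of duplicate Alpha signals. Cell lysates were probed with SureFire Ultra kits for mTORC1 substrates 4E-BP1 T37/46 and P70S6K T389 and mTORC2 substrate Akt S473 in MDA-MB-468 cells exposed to inhibitor.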

Another test relates to P-P70S6K (T389). Put plainly: Cell based AlphaLISA assay, inhibition of P-P70S6K (T389) (mTORC1 substrate phosphorylation) in MDA-MB-468 cells. Conditions: Homo sapiens, 4 h, AlphaLISA, two to four hours at 37° C., read-out: pIC50 for Inhibition of mTORC1 and mTORC2 Substrate Phosphorylation, P-P70S6K-(T389) (converted). In outline:
as §1

For a further test, the system named is P-4E-BP1 (T37/46). Put plainly: Cell based AlphaLISA assay, inhibition of P-4E-BP1 (T37/46) (mTORC1 substrate phosphorylation) in MDA-MB-468 cells. Conditions: Homo sapiens, MDA-MB-468, 4 h, AlphaLISA, two to four hours at 37° C., read-out: pIC50 for Inhibition of mTORC1 and mTORC2 Substrate Phosphorylation, P-4E-BP1-(T37/46) (converted). In outline: as §1

`CO[C@H]1C[C@@H]2CC[C@@H](C)[C@@](O)(O2)C(=O)C(=O)N2CCCC[C@H]2C(=O)O[C@H]([C@H](C)C[C@@H]2CC[C@@H](OCCCCc3cn(CCOCCOCCOCCOCCOCCOCCOCCOCCOCCOCCOCCOCCOCCOCCOCCOCCOCCOCCOCCOCCOCCOCCOCCOCCC(=O)NCCCCn4nc(-c5ccc6oc(N)nc6c5)c5c(N)ncnc54)nn3)[C@H](OC)C2)CC(=O)[C@H](C)/C=C(\C)[C@@H](O)[C@@H](OC)C(=O)[C@H](C)C[C@H](C)/C=C/C=C/C=C/1C` [Example 97]: the IC50 was 3.16 to 31.6 nM in the test with P-Akt (S473), 1 to 10 nM in the test on P-P70S6K (T389) and 3.16 to 31.6 nM in the test on P-4E-BP1 (T37/46).

Consider `CO[C@H]1C[C@@H]2CC[C@@H](C)[C@@](O)(O2)C(=O)C(=O)N2CCCC[C@H]2C(=O)O[C@H]([C@H](C)C[C@@H]2CC[C@@H](OCCCCc3cn(CCOCCOCCOCCOCCNC(=O)CCC(=O)NCCCCn4nc(-c5ccc6oc(N)nc6c5)c5c(N)ncnc54)nn3)[C@H](OC)C2)CC(=O)[C@H](C)/C=C(\C)[C@@H](O)[C@@H](OC)C(=O)[C@H](C)C[C@H](C)/C=C/C=C/C=C/1C` [Example 99], for which the IC50 in the test on P-Akt (S473) is 3.16 to 31.6 nM; with P-P70S6K (T389), under 1 nM; in the test with P-4E-BP1 (T37/46), 3.16 to 31.6 nM.

Take `CO[C@H]1C[C@@H]2CC[C@@H](C)[C@@](O)(O2)C(=O)C(=O)N2CCCC[C@H]2C(=O)O[C@H]([C@H](C)C[C@@H]2CC[C@@H](OCCCCc3cn(CCOCCOCCOCCNC(=O)CCCC(=O)NCCCCn4nc(-c5ccc6oc(N)nc6c5)c5c(N)ncnc54)nn3)[C@H](OC)C2)CC(=O)[C@H](C)/C=C(\C)[C@@H](O)[C@@H](OC)C(=O)[C@H](C)C[C@H](C)/C=C/C=C/C=C/1C` [Example 100]: the IC50 in the test with P-Akt (S473) is 3.16 to 31.6 nM; in the test on P-P70S6K (T389), under 1 nM; in the test with P-4E-BP1 (T37/46), 31.6 to 1000 nM.

Take `CO[C@H]1C[C@@H]2CC[C@@H](C)[C@@](O)(O2)C(=O)C(=O)N2CCCC[C@H]2C(=O)O[C@H]([C@H](C)C[C@@H]2CC[C@@H](OCCCCc3cn(CCOCCOCCOCCOCCNC(=O)CCCC(=O)NCCCCn4nc(-c5ccc6oc(N)nc6c5)c5c(N)ncnc54)nn3)[C@H](OC)C2)CC(=O)[C@H](C)/C=C(\C)[C@@H](O)[C@@H](OC)C(=O)[C@H](C)C[C@H](C)/C=C/C=C/C=C/1C` [Example 101]: the figures for the IC50 with P-Akt (S473), with P-P70S6K (T389) and with P-4E-BP1 (T37/46) were 3.16 to 31.6 nM, under 1 nM and under 3.16 nM, respectively.

With `CO[C@H]1C[C@@H]2CC[C@@H](C)[C@@](O)(O2)C(=O)C(=O)N2CCCC[C@H]2C(=O)O[C@H]([C@H](C)C[C@@H]2CC[C@@H](OCCCCc3cn(CCOCCOCCOCCNC(=O)CCCCC(=O)NCCCCn4nc(-c5ccc6oc(N)nc6c5)c5c(N)ncnc54)nn3)[C@H](OC)C2)CC(=O)[C@H](C)/C=C(\C)[C@@H](O)[C@@H](OC)C(=O)[C@H](C)C[C@H](C)/C=C/C=C/C=C/1C` [Example 102], the results for the IC50 in the test with P-Akt (S473), with P-P70S6K (T389) and with P-4E-BP1 (T37/46) were 3.16 to 31.6 nM, under 1 nM and 3.16 to 31.6 nM, respectively.

Regarding `CO[C@H]1C[C@@H]2CC[C@@H](C)[C@@](O)(O2)C(=O)C(=O)N2CCCC[C@H]2C(=O)O[C@H]([C@H](C)C[C@@H]2CC[C@@H](OCCCCc3cn(CCOCCOCCOCCOCCNC(=O)CCCCC(=O)NCCCCn4nc(-c5ccc6oc(N)nc6c5)c5c(N)ncnc54)nn3)[C@H](OC)C2)CC(=O)[C@H](C)/C=C(\C)[C@@H](O)[C@@H](OC)C(=O)[C@H](C)C[C@H](C)/C=C/C=C/C=C/1C` [Example 103], the IC50 is 3.16 to 31.6 nM in the test on P-Akt (S473), under 1 nM in the test on P-P70S6K (T389) and under 3.16 nM with P-4E-BP1 (T37/46).

Regarding `CO[C@H]1C[C@@H]2CC[C@@H](C)[C@@](O)(O2)C(=O)C(=O)N2CCCC[C@H]2C(=O)O[C@H]([C@H](C)C[C@@H]2CC[C@@H](O)[C@H](OC)C2)C[C@@H](OC)[C@H](C)/C=C(\C)[C@@H](O)[C@@H](OC)C(=NOCc2cn(CCOCCOCCOCCOCCNC(=O)CCCC(=O)NCCCCn3nc(-c4ccc5oc(N)nc5c4)c4c(N)ncnc43)nn2)[C@H](C)C[C@H](C)/C=C/C=C/C=C/1C` [Example 104], the IC50 was 31.6 to 1000 nM in the test with P-Akt (S473), 1 to 10 nM in the test on P-P70S6K (T389) and 31.6 to 1000 nM with P-4E-BP1 (T37/46).

Regarding `CO[C@H]1C[C@@H]2CC[C@@H](C)[C@@](O)(O2)C(=O)C(=O)N2CCCC[C@H]2C(=O)O[C@H]([C@H](C)C[C@@H]2CC[C@@H](O)[C@H](OC)C2)C[C@@H](OC)[C@H](C)/C=C(\C)[C@@H](O)[C@@H](OC)C(=NOCc2cn(CCOCCOCCOCCOCCOCCNC(=O)CCC(=O)NCCCCn3nc(-c4ccc5oc(N)nc5c4)c4c(N)ncnc43)nn2)[C@H](C)C[C@H](C)/C=C/C=C/C=C/1C` [Example 105], the IC50 in the test on P-Akt (S473) is 31.6 to 1000 nM; with P-P70S6K (T389), 1 to 10 nM; in the test with P-4E-BP1 (T37/46), 3.16 to 31.6 nM.

Regarding `COc1cccc2cc(-c3nc([C@H]4CC[C@H](C(=O)NCCOCCOCCOCCOCCOCCOCCn5cc(CCCCO[C@@H]6CC[C@@H](C[C@@H](C)[C@@H]7CC(=O)[C@H](C)/C=C(\C)[C@@H](O)[C@@H](OC)C(=O)[C@H](C)C[C@H](C)/C=C/C=C/C=C(\C)[C@@H](OC)C[C@@H]8CC[C@@H](C)[C@@](O)(O8)C(=O)C(=O)N8CCCC[C@H]8C(=O)O7)C[C@H]6OC)nn5)CC4)n4ncnc(N)c34)[nH]c12` [Example 106], the IC50 in the test on P-Akt (S473) is 3.16 to 31.6 nM; in the test on P-P70S6K (T389), under 1 nM; with P-4E-BP1 (T37/46) it was under 3.16 nM.

As to `CO[C@H]1C[C@@H]2CC[C@@H](C)[C@@](O)(O2)C(=O)C(=O)N2CCCC[C@H]2C(=O)O[C@H]([C@H](C)C[C@@H]2CC[C@@H](OCCCCc3cn(CCOCCOCCOCCOCCOCCOCCOCCOCCNC(=O)c4ccc(-c5ccc6c(N7CCOC[C@H]7C)nc(N7CCOC[C@H]7C)nc6n5)cc4)nn3)[C@H](OC)C2)CC(=O)[C@H](C)/C=C(\C)[C@@H](O)[C@@H](OC)C(=O)[C@H](C)C[C@H](C)/C=C/C=C/C=C/1C` [Example 107], the results for the IC50 with P-Akt (S473), in the test with P-P70S6K (T389) and in the test with P-4E-BP1 (T37/46) were under 3.16 nM, under 1 nM and under 3.16 nM, respectively.

`COc1cccc2cc(-c3nc([C@H]4CC[C@H](C(=O)NCCOCCOCCOCCOCCOCCOCCOCCOCCn5cc(CCCCO[C@@H]6CC[C@@H](C[C@@H](C)[C@@H]7CC(=O)[C@H](C)/C=C(\C)[C@@H](O)[C@@H](OC)C(=O)[C@H](C)C[C@H](C)/C=C/C=C/C=C(\C)[C@@H](OC)C[C@@H]8CC[C@@H](C)[C@@](O)(O8)C(=O)C(=O)N8CCCC[C@H]8C(=O)O7)C[C@H]6OC)nn5)CC4)n4ncnc(N)c34)[nH]c12` [Example 108]: the IC50 in the test with P-Akt (S473) is 3.16 to 31.6 nM; with P-P70S6K (T389) it was under 1 nM; with P-4E-BP1 (T37/46) it was under 3.16 nM.

For `CO[C@H]1C[C@@H]2CC[C@@H](C)[C@@](O)(O2)C(=O)C(=O)N2CCCC[C@H]2C(=O)O[C@H]([C@H](C)C[C@@H]2CC[C@H](n3cc(-c4cnc(N5CCN(c6ncc(C(=O)NCCOCCC(=O)NCCCCn7nc(-c8ccc9oc(N)nc9c8)c8c(N)ncnc87)cn6)CC5)nc4)nn3)[C@H](OC)C2)CC(=O)[C@H](C)/C=C(\C)[C@@H](O)[C@@H](OC)C(=O)[C@H](C)C[C@H](C)/C=C/C=C/C=C/1C` [Example 109], the IC50 is over 1000 nM in the test with P-Akt (S473), under 1 nM in the test on P-P70S6K (T389) and over 1000 nM in the test with P-4E-BP1 (T37/46).

With `CO[C@H]1C[C@@H]2CC[C@@H](C)[C@@](O)(O2)C(=O)C(=O)N2CCCC[C@H]2C(=O)O[C@H]([C@H](C)C[C@@H]2CC[C@H](n3cc(-c4cnc(N5CCN(c6ncc(C(=O)NCCOCCC(=O)NCCCCn7nc(-c8cc9cc(O)ccc9[nH]8)c8c(N)ncnc87)cn6)CC5)nc4)nn3)[C@H](OC)C2)CC(=O)[C@H](C)/C=C(\C)[C@@H](O)[C@@H](OC)C(=O)[C@H](C)C[C@H](C)/C=C/C=C/C=C/1C` [Example 110], the results for the IC50 with P-Akt (S473), in the test on P-P70S6K (T389) and in the test on P-4E-BP1 (T37/46) were over 1000 nM, under 1 nM and 31.6 to 1000 nM, respectively.

In the case of `CO[C@H]1C[C@@H]2CC[C@@H](C)[C@@](O)(O2)C(=O)C(=O)N2CCCC[C@H]2C(=O)O[C@H]([C@H](C)C[C@@H]2CC[C@H](n3cc(-c4cnc(N5CCN(c6ncc(C(=O)NCCOCCOCCC(=O)NCCCCn7nc(-c8ccc9oc(N)nc9c8)c8c(N)ncnc87)cn6)CC5)nc4)nn3)[C@H](OC)C2)CC(=O)[C@H](C)/C=C(\C)[C@@H](O)[C@@H](OC)C(=O)[C@H](C)C[C@H](C)/C=C/C=C/C=C/1C` [Example 111], the results for the IC50 in the test on P-Akt (S473), in the test with P-P70S6K (T389) and in the test with P-4E-BP1 (T37/46) were 31.6 to 1000 nM, under 1 nM and 31.6 to 1000 nM, respectively.

As for `CO[C@H]1C[C@@H]2CC[C@@H](C)[C@@](O)(O2)C(=O)C(=O)N2CCCC[C@H]2C(=O)O[C@H]([C@H](C)C[C@@H]2CC[C@H](n3cc(-c4cnc(N5CCN(c6ncc(C(=O)NCCOCCOCCC(=O)NCCCCn7nc(-c8cc9cc(O)ccc9[nH]8)c8c(N)ncnc87)cn6)CC5)nc4)nn3)[C@H](OC)C2)CC(=O)[C@H](C)/C=C(\C)[C@@H](O)[C@@H](OC)C(=O)[C@H](C)C[C@H](C)/C=C/C=C/C=C/1C` [Example 112], the IC50 with P-Akt (S473) is over 1000 nM; with P-P70S6K (T389), under 1 nM; in the test with P-4E-BP1 (T37/46) it was over 1000 nM.

On to `CO[C@H]1C[C@@H]2CC[C@@H](C)[C@@](O)(O2)C(=O)C(=O)N2CCCC[C@H]2C(=O)O[C@H]([C@H](C)C[C@@H]2CC[C@H](n3cc(-c4cnc(N5CCN(c6ncc(C(=O)NCCOCCOCCOCCC(=O)NCCCCn7nc(-c8ccc9oc(N)nc9c8)c8c(N)ncnc87)cn6)CC5)nc4)nn3)[C@H](OC)C2)CC(=O)[C@H](C)/C=C(\C)[C@@H](O)[C@@H](OC)C(=O)[C@H](C)C[C@H](C)/C=C/C=C/C=C/1C` [Example 113], for which the values for the IC50 with P-Akt (S473), with P-P70S6K (T389) and in the test with P-4E-BP1 (T37/46) were 3.16 to 31.6 nM, under 1 nM and under 3.16 nM, respectively.

The values are drawn from patent US20230093861A1, “RAPAMYCIN ANALOGS AS MTOR INHIBITORS” (Revolution Medicines, Inc., priority 2017, published 2023).
